This note sets out measurements from ChEMBL document CHEMBL5385882, “Rational design and appraisal of selective Cdc2-Like kinase 1 (Clk1) inhibitors as novel autophagy inducers for the treatment of acute liver injury (ALI)” (Eur J Med Chem, 2023).

For series [1], the species on record is Homo sapiens. The experiment in a line: Selectivity index, ratio of IC50 for inhibition of human full length recombinant DYRK1A to IC50 for inhibition of human 130-end recombinant CLK1.
The target in series [2] is T1, Dual specificity protein kinase CLK1 (Homo sapiens, UniProt P49759). In words: Inhibition of human 130-end recombinant CLK1 assessed as remaining activity using ERMRPRKRQGSVR as substrate by [gamma-32P]ATP binding based scintillation counting based analysis.
Target sequence in this assay (P49759 whole entry): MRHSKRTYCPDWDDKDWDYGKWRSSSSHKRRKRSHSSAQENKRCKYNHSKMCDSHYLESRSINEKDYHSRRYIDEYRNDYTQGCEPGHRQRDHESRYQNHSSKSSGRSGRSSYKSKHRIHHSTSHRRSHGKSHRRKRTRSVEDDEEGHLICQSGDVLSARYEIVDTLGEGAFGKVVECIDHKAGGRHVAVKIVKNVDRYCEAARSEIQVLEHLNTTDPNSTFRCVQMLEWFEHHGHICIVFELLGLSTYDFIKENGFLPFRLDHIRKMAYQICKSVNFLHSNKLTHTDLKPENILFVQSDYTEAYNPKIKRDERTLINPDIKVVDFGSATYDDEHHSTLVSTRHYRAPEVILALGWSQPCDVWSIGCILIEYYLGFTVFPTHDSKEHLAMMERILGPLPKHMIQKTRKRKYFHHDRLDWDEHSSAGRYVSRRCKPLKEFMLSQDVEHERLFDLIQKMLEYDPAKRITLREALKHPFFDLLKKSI
The target in series [3] is T1, Dual specificity protein kinase CLK1. In words: Inhibition of human 130-end recombinant CLK1 assessed as remaining activity using ERMRPRKRQGSVR as substrate at 100 nM by [gamma-32P]ATP binding based scintillation counting based analysis relative to control.
Target sequence in this assay (P49759 whole entry, looked up): as the sequence (P49759 whole entry) above
The target in series [4] is T2, Dual specificity tyrosine-phosphorylation-regulated kinase 1A (Homo sapiens, UniProt Q13627). The experiment in a line: Inhibition of human full length recombinant DYRK1A assessed as remaining activity using RRRFRPASPLRGPP as substrate at 100 nM by [gamma-32P]ATP binding based scintillation counting based analysis relative to control.
The target in series [5] is T2, Dual specificity tyrosine-phosphorylation-regulated kinase 1A. The experiment in a line: Inhibition of human full length recombinant DYRK1A assessed as remaining activity using RRRFRPASPLRGPP as substrate by [gamma-32P]ATP binding based scintillation counting based analysis.
A short description of series [6]: Metabolic stability in human liver microsomes assessed as half life at 10 uM incubated for 5 mins in the presence of NADPH-generating system by LC-MS/MS analysis. The format is ADME, Microsome. In general terms: Microsomes from liver hold many membrane-bound enzymes, among them those of drug oxidation.
Series [7] is described as follows: Metabolic stability in human liver microsomes assessed as clearance at 10 uM incubated for 5 mins in the presence of NADPH-generating system by LC-MS/MS analysis. Type of series: ADME, Microsome.

Some results are limits rather than exact numbers.

As to `COc1cc(Cl)ccc1C(=O)Nc1cnc2[nH]cc(-c3cccnc3)c2c1`, the Selectivity Index in series [1] stood at 81.4. For the same compound, the IC50 (commonly the concentration that gives 50% inhibition) was found to be 25 nM in series [2] and 2040 nM in series [5]. Also, the figures for the Activity in series [3] and in series [4] were 17% and 84%, respectively.
In the case of `NC(=O)c1cccc(-c2c[nH]c3ncc(NCc4cc(F)cc(F)c4)cc23)c1`, the results for the IC50 in series [2] and in series [5] were 762 nM and over 5000 nM, respectively. Further, the Activity came to 89% in series [3] and 105% in series [4].
As for `CCCc1ccc(-c2c[nH]c3ncc(NCc4cc(F)cc(F)c4)cc23)cc1`, the Activity amounted to 85% in series [3] and 111% in series [4].
Turning to `CN1CCN(c2ccc(CNc3cnc4[nH]cc(-c5cccnc5)c4c3)cc2)CC1`, the Selectivity Index in series [1] worked out at 135. The IC50 was 13 nM in series [2] and 1750 nM in series [5]. For the same compound, the values for the Activity in series [3] and in series [4] were 9% and 85%, respectively.
In the case of `COc1cncc(-c2c[nH]c3ncc(NCc4cc(F)cc(F)c4)cc23)c1`, in series [1], the Selectivity Index was found to be 82.7. The values for the IC50 in series [2] and in series [5] were 16 nM and 1320 nM, respectively. Also, the Activity in series [3] stood at 9%; in series [4] it was 81%. Besides, in series [6], the half-life – broadly, the time needed for the level to fall by half in the phase considered – at 10 µM came to 32.1 min. The CLH in series [7] was found to be 88.7 mL/min/g.
Turning to `FC(F)(F)c1cccc(CNc2cnc3[nH]cc(-c4cccnc4)c3c2)c1`, the Selectivity Index in series [1] amounted to 15.3. The IC50 came to 45 nM in series [2] and 689 nM in series [5]. Also, the Activity was determined as 18% in series [3] and 96% in series [4].
With `Fc1cccc(/C=N/c2cnc3[nH]cc(-c4cncc(F)c4)c3c2)c1`, the figures for the IC50 in series [2] and in series [5] were 454 nM and 653 nM, respectively. The Activity turned out to be 61% in series [3] and 74% in series [4].
`COc1cncc(-c2c[nH]c3ncc(NCc4ccc(N5CCOCC5)cc4)cc23)c1`: the Selectivity Index in series [1] was 63.2. For the same compound, the values for the IC50 in series [2] and in series [5] were 30 nM and 1900 nM, respectively. In addition, the Activity in series [3] was determined as 16%; in series [4], 85%. Besides, the half-life at 10 µM in series [6] turned out to be 21.2 min. The CLH in series [7] worked out at 65.4 mL/min/g.
As for `COc1ccc(-c2c[nH]c3ncc(NCc4cc(F)cc(F)c4)cc23)cc1`, the Selectivity Index in series [1] turned out to be 6.5. Moreover, the IC50 in series [2] was 15 nM; in series [5], 97 nM. Further, the Activity in series [3] is 3%; in series [4], 40%.
`O=C(Nc1cnc2[nH]cc(-c3cncc(F)c3)c2c1)c1ccco1`: the IC50 in series [2] was determined as 389 nM; in series [5], 3010 nM. Besides, the values for the Activity in series [3] and in series [4] were 64% and 88%, respectively.
For `O=C(Nc1cnc2[nH]cc(-c3cncc(F)c3)c2c1)c1ccc(F)cc1`, the Selectivity Index in series [1] amounted to 45.3. The concentration for half-maximal inhibition (IC50) in series [2] is 64 nM; in series [5], 2900 nM. Moreover, the Activity in series [3] was 37%; in series [4], 83%. Moreover, in series [6], the half-life at 10 µM was over 120 min. Further, the CLH in series [7] was under 12 mL/min/g.
For the compound `Fc1cc(F)cc(CNc2cnc3[nH]cc(-c4cc5ccccc5s4)c3c2)c1`, the figures for the IC50 in series [2] and in series [5] were 252 nM and 2210 nM, respectively. The Activity in series [3] was determined as 65%; in series [4] it was 108%.
As to `COc1cncc(-c2c[nH]c3ncc(NCc4cccc(F)c4)cc23)c1`, in series [1], the Selectivity Index is 119. The IC50 in series [2] came out at 17 nM; in series [5] it was 2030 nM. Besides, the Activity was 2% in series [3] and 89% in series [4]. Also, the half-life at 10 µM in series [6] was determined as 19.5 min. The CLH in series [7] was found to be 80.4 mL/min/g.
As for `Fc1cccc(CNc2cnc3[nH]cc(-c4cccnc4)c3c2)c1`, in series [1], the Selectivity Index was 31.6. Further, the IC50 in series [2] was found to be 15 nM; in series [5] it was 475 nM. Also, the Activity turned out to be 4% in series [3] and 98% in series [4].
Consider `Nc1ncc(-c2c[nH]c3ncc(NCc4cc(F)cc(F)c4)cc23)cn1`, for which, in series [1], the Selectivity Index stood at 7.8. The IC50 in series [2] came out at 75 nM; in series [5], 590 nM. Besides, the Activity in series [3] was 26%; in series [4] it was 102%.
For the compound `COc1ccc(-c2cnc3ccc(NCc4ccc(F)cc4)cn23)cc1`, the Activity in series [3] is 91%; in series [4], 110%.
As for `COc1cncc(-c2c[nH]c3ncc(NCc4ccc(F)cc4)cc23)c1`, the Selectivity Index in series [1] amounted to 156. Besides, the IC50 in series [2] worked out at 15 nM; in series [5], 2330 nM. In addition, the Activity in series [3] stood at 6%; in series [4], 88%. In addition, the half-life at 10 µM in series [6] stood at 20.3 min. In series [7], the CLH is 76.8 mL/min/g.
As for `CC(C)c1cccc(CNc2cnc3[nH]cc(-c4cccnc4)c3c2)c1`, the Selectivity Index in series [1] was 117. For the same compound, the results for the IC50 in series [2] and in series [5] were 23 nM and 2390 nM, respectively. Further, the Activity in series [3] was 16%; in series [4], 108%.
Consider `Fc1cc(F)cc(CNc2cnc3[nH]cc(-c4cccnc4)c3c2)c1`, for which the Selectivity Index in series [1] amounted to 16. Further, the IC50 worked out at 18 nM in series [2] and 288 nM in series [5]. Besides, the Activity in series [3] came to 12%; in series [4] it was 91%.
For `COc1ccc(-c2cnc3ccc(NCc4ccc(N(C)C)cc4)cn23)cc1`, the Activity in series [3] turned out to be 103%; in series [4], 101%.
Consider `CC(C)(C)c1cccc(CNc2cnc3[nH]cc(-c4cccnc4)c3c2)c1`, for which the Selectivity Index in series [1] amounted to 21.9. The figures for the IC50 in series [2] and in series [5] were 45 nM and 988 nM, respectively. In addition, the figures for the Activity in series [3] and in series [4] were 27% and 103%, respectively.
With `COc1cncc(-c2c[nH]c3ncc(NC(=O)c4ccc(Cl)cc4OC)cc23)c1`, the Selectivity Index in series [1] amounted to 700. The figures for the IC50 in series [2] and in series [5] were 5 nM and 3500 nM, respectively. For the same compound, the Activity in series [3] stood at 8%; in series [4] it was 95%. For the same compound, the half-life at 10 µM in series [6] amounted to 101 min. Further, the CLH in series [7] was 15 mL/min/g.
On to `O=S(=O)(Nc1cnc2[nH]cc(-c3cncc(F)c3)c2c1)c1ccc(F)cc1`, for which the IC50 came out at 667 nM in series [2] and 3660 nM in series [5]. For the same compound, the figures for the Activity in series [3] and in series [4] were 70% and 94%, respectively.
For the compound `COc1ccc(-c2cnc3ccc(NCc4cc(F)cc(F)c4)cn23)cc1`, the Selectivity Index in series [1] came out at 0.8. In addition, the IC50 was determined as 569 nM in series [2] and 465 nM in series [5]. For the same compound, the Activity was 105% in series [3] and 91% in series [4].
For `O=C(Nc1cc(C(F)(F)F)cc(C(F)(F)F)c1)Nc1cnc2[nH]cc(-c3cncc(F)c3)c2c1`, the IC50 in series [2] was 1870 nM; in series [5], 5680 nM. Moreover, the values for the Activity in series [3] and in series [4] were 88% and 106%, respectively.
`c1cncc(-c2c[nH]c3ncc(NCc4ccc(N5CCOCC5)cc4)cc23)c1`: in series [1], the Selectivity Index amounted to 36.9. The IC50 turned out to be 46 nM in series [2] and 1700 nM in series [5]. For the same compound, the Activity in series [3] was 28%; in series [4] it was 83%.
For `Nc1cccc(-c2c[nH]c3ncc(NCc4cc(F)cc(F)c4)cc23)c1` the same measures were 5.9, 66 nM, 389 nM, 28% and 88%.
As to `Fc1ccc(/C=N/c2cnc3[nH]cc(-c4cncc(F)c4)c3c2)cc1`, the figures for the IC50 in series [2] and in series [5] were 510 nM and 1350 nM, respectively. Also, the Activity came to 70% in series [3] and 86% in series [4].
With `COc1ccc(-c2cnc3ccc(NC4CCCC4)cn23)cc1`, the Activity in series [3] turned out to be 99%; in series [4] it was 126%.
As for `O=C(Nc1cnc2[nH]cc(-c3cccnc3)c2c1)c1ccc(F)cc1`, the Selectivity Index in series [1] was 72.6. For the same compound, the IC50 in series [2] came to 31 nM; in series [5], 2250 nM. The Activity in series [3] is 30%; in series [4], 90%.
On the same counts, the results for `CCN(CC)c1ccc(CNc2cnc3[nH]cc(-c4cccnc4)c3c2)cc1` are 22.4, 70 nM, 1560 nM, 33% and 98%.
Take `Fc1cc(F)cc(CNc2cnc3[nH]cc(C4=CCCCC4)c3c2)c1`: the values for the IC50 in series [2] and in series [5] were 324 nM and 2460 nM, respectively. In addition, the Activity in series [3] came to 74%; in series [4] it was 99%.
As for `Fc1cc(F)cc(CNc2cnc3[nH]cc(-c4ccc(C(F)(F)F)cc4)c3c2)c1`, in series [1], the Selectivity Index stood at 1.7. Also, the figures for the 50% inhibitory concentration (IC50) in series [2] and in series [5] were 458 nM and 765 nM, respectively. Besides, the Activity in series [3] worked out at 80%; in series [4] it was 108%.
Regarding `O=C(Nc1cnc2[nH]cc(-c3cccnc3)c2c1)c1ccc(C(F)(F)F)c(F)c1`, in series [1], the Selectivity Index came to 41. Also, the values for the concentration for half-maximal inhibition (IC50) in series [2] and in series [5] were 89 nM and 3650 nM, respectively. In addition, the values for the Activity in series [3] and in series [4] were 45% and 87%, respectively.
For `Fc1cc(F)cc(CNc2cnc3[nH]cc(-c4ccc5ccccc5c4)c3c2)c1`, the half-maximal inhibitory concentration (IC50) in series [2] is 476 nM; in series [5], over 5000 nM. Moreover, the results for the Activity in series [3] and in series [4] were 80% and 106%, respectively.
On to `Nc1ccc(-c2c[nH]c3ncc(NCc4cc(F)cc(F)c4)cc23)cc1`, for which the Selectivity Index in series [1] was 6.3. Moreover, the IC50 was found to be 89 nM in series [2] and 561 nM in series [5]. In addition, the Activity is 36% in series [3] and 101% in series [4].
